≈ marks a conversion by molar mass, not a printed value.
Columns and labels:
[1] = molecular target: human soluble guanylate cyclase alpha 1 and beta 1 subunits (sGC) (Homo sapiens (Human), UniProt Q02108+Q02153); experiment: sGC cellular activator assay (cGMP, HTRF), in the presence and absence of 50% human serum; assay type: cell-based; conditions: CHO cells stably expressing human sGC alpha 1/beta 1, preincubated with 40 microM ODQ; cGMP by HTRF; Table 2 does not state whether with or without 50% human serum
Sequence of human soluble guanylate cyclase alpha 1 and beta 1 subunits (sGC) (Q02108 whole entry partner): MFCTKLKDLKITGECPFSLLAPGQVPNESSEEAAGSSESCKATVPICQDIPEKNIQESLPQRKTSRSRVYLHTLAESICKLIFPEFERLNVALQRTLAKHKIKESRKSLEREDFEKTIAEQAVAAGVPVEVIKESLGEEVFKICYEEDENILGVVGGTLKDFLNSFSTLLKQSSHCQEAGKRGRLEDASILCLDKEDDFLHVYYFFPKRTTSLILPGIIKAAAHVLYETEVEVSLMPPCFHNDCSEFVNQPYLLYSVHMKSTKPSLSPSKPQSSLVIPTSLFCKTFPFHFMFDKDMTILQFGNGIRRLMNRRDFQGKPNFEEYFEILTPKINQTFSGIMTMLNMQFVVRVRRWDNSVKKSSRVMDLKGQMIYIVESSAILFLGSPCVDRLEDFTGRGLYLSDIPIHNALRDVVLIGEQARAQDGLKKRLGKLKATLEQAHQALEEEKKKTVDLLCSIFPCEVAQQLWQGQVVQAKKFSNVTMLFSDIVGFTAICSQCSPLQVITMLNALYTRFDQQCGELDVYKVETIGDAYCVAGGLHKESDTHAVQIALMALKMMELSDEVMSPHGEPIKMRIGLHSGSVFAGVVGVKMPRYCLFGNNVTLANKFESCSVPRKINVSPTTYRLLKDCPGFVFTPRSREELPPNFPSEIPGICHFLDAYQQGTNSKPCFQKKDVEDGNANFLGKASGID
Sequence of human soluble guanylate cyclase alpha 1 and beta 1 subunits (sGC) (Q02153 whole entry): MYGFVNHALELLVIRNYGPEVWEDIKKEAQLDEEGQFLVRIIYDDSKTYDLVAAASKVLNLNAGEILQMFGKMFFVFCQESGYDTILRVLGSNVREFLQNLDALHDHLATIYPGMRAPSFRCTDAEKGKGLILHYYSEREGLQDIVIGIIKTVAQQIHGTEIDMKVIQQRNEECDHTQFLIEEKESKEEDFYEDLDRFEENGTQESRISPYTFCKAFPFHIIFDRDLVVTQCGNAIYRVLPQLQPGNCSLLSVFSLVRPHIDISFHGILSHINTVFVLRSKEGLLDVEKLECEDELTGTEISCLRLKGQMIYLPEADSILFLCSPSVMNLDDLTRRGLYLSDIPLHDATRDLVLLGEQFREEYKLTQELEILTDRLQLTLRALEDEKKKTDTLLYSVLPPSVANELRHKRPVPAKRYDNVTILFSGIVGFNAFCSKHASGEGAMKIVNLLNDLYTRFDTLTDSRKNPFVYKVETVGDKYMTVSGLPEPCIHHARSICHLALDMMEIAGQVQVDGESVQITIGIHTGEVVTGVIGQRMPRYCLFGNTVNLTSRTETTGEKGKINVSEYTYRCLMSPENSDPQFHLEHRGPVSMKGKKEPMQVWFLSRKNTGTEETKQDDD
Procedure, shortened: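 Heme-oxidized conditions: ODQ (40 microM, 1 h) pretreatment of CHO cells stably expressing human α1/β1 sGC, in buffer containing 0.1% BSA and IBMX.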

[2] = Human liver microsome (HLM) metabolic stability assay; assay type: in vitro ADME; conditions: human liver microsomes
Procedure, shortened: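 Compound at 1 uM incubated with human liver microsomes at 37° C. for 60 min after NADPH addition. Aliquots quenched in cold acetonitrile at 0, 5, 15, 30 and 60 min and analysed by LC/MS/MS. t1/2 from ln(% remaining) vs time slope; CLint, CLh and % Qh derived from it (n=1).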

[3] = physchem; conditions: kinetic from dmso stock
[4] = pH 2.2, aqueous buffer, Solubility (pH 2.2)
[5] = pH 4.5, aqueous buffer, Solubility (pH 4.5)
[6] = pH 6.8, aqueous buffer, Solubility (pH 6.8)

Row | SMILES | EC50 [1] [nM] | Metabolic stability (Qh %), % hepatic blood flow [2] [%] | solubility at 24 h [3, 4] [µg/mL] | solubility at 24 h [3, 5] [µg/mL] | solubility at 24 h [3, 6] [µg/mL]
1 | CO[C@H]1CN(c2nc(-c3cccc(C)c3OCc3ccc4c(c3C)CCN(C3COC3)CC4)cs2)CC[C@H]1C(=O)O [Compound 287] | 13 | <24 | 120 (≈ 207 µM) | 72.7 (≈ 126 µM) | 71.7 (≈ 124 µM)
2 | CO[C@H]1CN(c2nc(-c3cccc(C)c3OCc3ccc4c(c3C)CCN(C3CCOCC3)CC4)cs2)CC[C@H]1C(=O)O [Compound 288] | 18 | <24 | 117 (≈ 193 µM) | 75.5 (≈ 125 µM) | 71.8 (≈ 119 µM)
3 | CO[C@H]1CN(c2cccc(-c3cccc(C)c3OCc3ccc4c(c3C)CCN(C3COC3)CC4)n2)CC[C@@H]1C(=O)O [Compound 289] | 235 | <24 | 123 (≈ 215 µM) | 82.4 (≈ 144 µM) | 69.9 (≈ 122 µM)
4 | CO[C@@H]1CN(c2cccc(-c3cccc(C)c3OCc3ccc4c(c3C)CCN(C3COC3)CC4)n2)CC[C@H]1C(=O)O [Compound 290] | 228 | <24 | 119 (≈ 208 µM) | 80 (≈ 140 µM) | 66.5 (≈ 116 µM)
5 | CO[C@@H]1CN(c2cccc(-c3cccc(C)c3OCc3cc(C)c4c(c3)CCN(C3COC3)CC4)n2)CC[C@@H]1C(=O)O [Compound 291] | 2 | <24 | 128 (≈ 224 µM) | 84.7 (≈ 148 µM) | 62.3 (≈ 109 µM)
6 | Cc1c(COc2ccccc2-c2cccc(N3CC[C@@]4(C(=O)O)C[C@H]4C3)n2)ccc2c1CCN(C1CCC1)C2 [Compound 292] | 3 | 47 | 113 (≈ 216 µM) | 43.5 (≈ 83.1 µM) | 6.2 (≈ 11.8 µM)
7 | CO[C@@H]1CN(c2cccc(-c3cccc(C)c3OCc3cc(C)c4c(c3)CCN(C3CCOCC3)CC4)n2)CC[C@@H]1C(=O)O [Compound 293] | 1 | 25 | 116 (≈ 193 µM) | 82.3 (≈ 137 µM) | 63.1 (≈ 105 µM)
8 | CO[C@H]1CN(c2cccc(-c3cccc(C)c3OCc3ccc4c(c3C)CCN(C3CCOCC3)CC4)n2)CC[C@@H]1C(=O)O [Compound 296] | 363 | <24 | 132 (≈ 219 µM) | 77.2 (≈ 129 µM) | 68.8 (≈ 115 µM)
9 | CO[C@@H]1CN(c2cccc(-c3cccc(C)c3OCc3ccc4c(c3C)CCN(C3CCOCC3)CC4)n2)CC[C@H]1C(=O)O [Compound 297] | 150 | <24 | 134 (≈ 224 µM) | 93.7 (≈ 156 µM) | 77.3 (≈ 129 µM)
10 | CO[C@H]1CN(c2cccc(-c3cccc(C)c3OCc3cc(C)c4c(c3)CCN(C3CCOCC3)C4)n2)CC[C@@H]1C(=O)O [Compound 298] | 578 | 34 | 131 (≈ 224 µM) | 98.1 (≈ 167 µM) | 80.1 (≈ 137 µM)
11 | CO[C@@H]1CN(c2cccc(-c3cccc(C)c3OCc3cc(C)c4c(c3)CCN(C3CCOCC3)C4)n2)CC[C@H]1C(=O)O [Compound 299] | 152 | 31 | 134 (≈ 229 µM) | 90.8 (≈ 155 µM) | 70.8 (≈ 121 µM)
12 | CO[C@@H]1CN(c2cccc(-c3cccc(C)c3OCc3ccc4c(c3C)CCN(C)CC4)n2)CC[C@@H]1C(=O)O [Compound 300] | 154 | <24 | 116 (≈ 220 µM) | 82.3 (≈ 155 µM) | 62.3 (≈ 118 µM)
13 | CO[C@@H]1CN(c2cccc(-c3cccc(C)c3OCc3ccc4c(c3C)CCN([C@H]3CCOC3)CC4)n2)CC[C@@H]1C(=O)O [Compound 301] | 1 | <24 | 141 (≈ 241 µM) | 105 (≈ 180 µM) | 91.1 (≈ 156 µM)
14 | CO[C@@H]1CN(c2cccc(-c3cccc(C)c3OCc3ccc4c(c3C)CCN([C@@H]3CCOC3)CC4)n2)CC[C@@H]1C(=O)O [Compound 302] | 3 | <24 | 148 (≈ 252 µM) | 112 (≈ 190 µM) | 85.5 (≈ 146 µM)
15 | Cc1cc(COc2c(C)cccc2-c2csc(N3CC[C@@]4(C(=O)O)C[C@H]4C3)n2)cc2c1CN(C1CCC(F)(F)CC1)CC2 [Compound 303] | 2 | 79 | 141 (≈ 232 µM) | 16.4 (≈ 27 µM) | 1 (≈ 1.65 µM)
16 | Cc1c(COc2ccccc2-c2cccc(N3CC[C@@]4(C(=O)O)C[C@H]4C3)n2)ccc2c1CCNC2 [Compound 305] | 340 | 30 | 108 (≈ 231 µM) | 81.2 (≈ 173 µM) | 0.7 (≈ 1.49 µM)

From US9353090B2, “Heterocyclic carboxylic acids as activators of soluble guanylate cyclase” (Boehringer Ingelheim International GmbH, priority 2014, dated 2016)
